# Results as given in PMC6934184, “Selective DNA-PKcs inhibition extends the therapeutic index of localized radiotherapy and chemotherapy” (The Journal of Clinical Investigation, 2019).
# Molecular target: T1, CDK8/cyclin C (Homo sapiens, UniProt P49336)
# T1 construct: purchased Thermo Fisher Scientific (Life Technologies) SelectScreen
# Test: SelectScreen LanthaScreen
# Format: binding
# Details: 1 µM
# Outline: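 NU5455 was profiled across the SelectScreen Broad panel of kinase activity and binding assays. Z'LYTE reactions such as CSF1R ran at apparent Km ATP, while the Adapta CAMK1 assay used ATP listed as 10. Values are given as percent.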
# T1 sequence (P49336 whole entry): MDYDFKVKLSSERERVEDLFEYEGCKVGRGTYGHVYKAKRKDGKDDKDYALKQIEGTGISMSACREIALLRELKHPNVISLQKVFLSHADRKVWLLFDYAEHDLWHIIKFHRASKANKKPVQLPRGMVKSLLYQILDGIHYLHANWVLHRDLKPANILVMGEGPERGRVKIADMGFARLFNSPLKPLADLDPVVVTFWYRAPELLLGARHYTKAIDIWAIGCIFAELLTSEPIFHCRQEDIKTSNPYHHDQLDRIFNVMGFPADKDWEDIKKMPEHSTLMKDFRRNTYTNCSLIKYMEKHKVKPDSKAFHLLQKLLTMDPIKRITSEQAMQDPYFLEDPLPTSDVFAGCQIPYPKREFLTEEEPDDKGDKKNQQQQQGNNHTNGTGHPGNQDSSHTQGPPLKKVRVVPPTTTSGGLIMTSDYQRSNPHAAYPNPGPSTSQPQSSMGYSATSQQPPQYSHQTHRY
# T1 sequence (P24863 whole entry partner): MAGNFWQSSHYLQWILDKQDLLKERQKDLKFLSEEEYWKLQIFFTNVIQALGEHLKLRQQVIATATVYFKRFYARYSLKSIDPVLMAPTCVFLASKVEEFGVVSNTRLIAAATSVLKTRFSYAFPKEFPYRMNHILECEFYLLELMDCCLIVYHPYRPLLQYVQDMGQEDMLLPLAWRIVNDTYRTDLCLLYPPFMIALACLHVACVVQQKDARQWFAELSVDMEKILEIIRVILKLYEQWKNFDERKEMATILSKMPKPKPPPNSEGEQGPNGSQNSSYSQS
smiles,measurement,value
CN(C(=O)CN1CCOCC1)c1ccc2sc3c(-c4cccc5c(=O)cc(N6CC7CCC(C6)O7)oc45)cccc3c2c1 [NU5455],% displacement,0.1%
